Columns and labels:
[1] = system: human umbilical vein endothelial cell (HUVEC); test: in vitro HUVEC migration assay (time-lapse imaging of scraped confluent cultures); assay type: cell-based
Experimental: To examine if the compounds of the invention affect endothelial cell function, an in vitro human umbilical vein endothelial cell (HUVEC) migration assay was performed in the presence of Compound 226. HUVEC cells (ATCC, VA) (passage number 4) were cultured in EGM2 medium (Cambrex, Mass.) on 12-well plates and performed time-lapse imaging with the live cell imaging system on an inverted microscope supplied with 6-7% CO2. The temperature was kept at 37° C. Images were taken every 30 minutes using the 2× objective for up to 106 hr (results in FIGS. 1, 2 and 3), or, every 60 seconds using the 20× objective for 30 min (for FIG. 4). Confluent HUVEC cultures were scraped similarly to make a blank area, followed by culturing in HUVEC medium for 15 hr without treatment. The migration areas, which were imaged as time-lapse sequences for each well, were used as a basis to standardize/correct migration rates. Then, migration of cells under different treatments was imaged at the same time to generate time-lapse image sequences for each well. Time-lapse movies were further analyzed by measuring areas that were covered by migrating cells. […] The red lines indicate the front lines of migrating cells. DMSO (1:100) treated cells migrated rapidly and covered the entire blank (wounded) area at 106 hr. […] During experiments, HUVEC cells were activated by the presence of VEGF (Cambrex, Mass.) and basic FGF (Cambrex, Mass.).
In addition to the analysis of HUVEC cell migration, HUVEC behavior was also tracked during above treatments.

[2] = system: VE-cadherin junctions between HUVEC cells; test: immunofluorescence study of VE-cadherin junctions between HUVEC cells; assay type: cell-based, human; conditions: 24 hrs
Experimental: An immunofluorescence study was performed by using anti-VE-cadherin antibodies (1:1 mixed, obtained from Amersham Biosciences, NJ, and Santa Cruz Biotechnology, CA) to examine VE-cadherin junctions between HUVEC cells. HUVEC cells were treated with DMSO or Compound 226 (10, 100 and 1000 nM) for 24 hrs and fixed for immunostaining. DMSO concentration was 1:100 for all treatments. To boost the immunofluorescence signal, cells were stained with a mixture of 2 polyclonal anti-human VE-cadherin Abs followed by staining with a mixture of fluorescent secondary antibodies. […] Non-DMSO treated cells gave a similar result to those with DMSO treatment (data not shown). […] This effect could result in limited motility of the cells and reducing permeability of the endothelium, thus contributing to the cell migration inhibition and the potential anti-angiogenesis effect of Compound 226.

[3] = system: HUVEC; test: HUVEC killing (separate reference experiment); assay type: cell-based; conditions: Homo sapiens

CC(C)c1cc(-c2nnc(O)n2-c2ccc3c(ccn3C)c2)c(O)cc1O [Compound 226, 3-(2,4-dihydroxy-5-isopropyl-phenyl)-4-(1-methyl-indol-5-yl)-5-hydroxy-[1,2,4] triazole]
migration of HUVEC cells to the blank area ([1]; 100 nM and 1 μM, up to 106 hr, compared to DMSO, cells activated by VEGF and basic FGF): completely blocked migration | HUVEC cell-cell contact lines (morphology) ([1]; 100 nM, 2× and 20× magnification (FIG. 4)): Cell-cell contact lines disappeared | movement of HUVEC cells in time-lapse videos (20× objective) ([1]; 100 nM, versus DMSO treated cells): significantly reduced movement | IC50 ([1]; Homo sapiens, HUVEC, estimated from similar covered areas at 100 nM and 1 μM (FIG. 2), read-out: IC50 of the inhibition of HUVEC migration): < 100 nM | HUVEC cell shrinkage ([1]; after 24 hr treatment with 100 nM and 1 μM): began to shrink | cell death of HUVEC during migration assay ([1]; at 24 hr (FIG. 3)): no significant cell death | HUVEC cell survival ([1]; at 48 hr, 1 μM): majority of cells were alive | VE-cadherin staining in cell-cell junction regions ([2]; 10 nM, compared to DMSO): extremely strong | VE-cadherin staining areas ([2]; 100 nM): further increase the VE-cadherin staining areas | VE-cadherin molecules distribution ([2]; 1 μM): Aggregations of VE-cadherin molecules appeared | IC50 [3]: ~800 nM

Reference: patent publication US8188075B2, “Triazole compounds that modulate HSP90 activity” (Synta Pharmaceuticals Corp., priority 2006, dated 2012)
